In US11000033B2, “Ketone or oxime compound, and herbicide” (NISSAN CHEMICAL CORPORATION, priority 2014, dated 2021):

Tests used:
Assay type in all cases: in vivo
[1] = tested on: Echinochloa crus-galli var. crus-galli; assay: Test Example 3: herbicidal effect by foliage application, Wagner pot (symbol H); conditions: application herbicide amount 320 g/ha
In short: (§1)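 Weeds and rice were sown in alluvial soil under 0.1–0.5 cm of standing water and grown for 14 days in a 25–30 °C greenhouse. An emulsion of the compound, diluted in water to a set dose, was sprayed evenly onto the foliage. Effect was scored against fixed criteria 3 weeks after treatment.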

Leptochloa chinensis = assay: Test Example 3: herbicidal effect by foliage application, Wagner pot (symbol D); conditions: application herbicide amount 320 g/ha
In short: as §1

Cyperus difformis = assay: Test Example 3: herbicidal effect by foliage application, Wagner pot (symbol E); conditions: application herbicide amount 320 g/ha
In short: as §1

[2] = tested on: directly sowed rice plant; assay: Test Example 3: effect on crop by foliage application, Wagner pot (symbol b); conditions: application herbicide amount 320 g/ha
In short: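 Greenhouse culture at 25–30 °C of seeded rice, Cyperus difformis, Leptochloa chinensis and Echinochloa crus-galli var. crus-galli, in alluvial soil held under 0.1–0.5 cm of water in a Wagner pot.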

Digitaria ciliaris [3] = assay: Test Example 4: herbicidal effect by soil treatment (symbol F); conditions: application herbicide amount 320 g/ha
Text: (§2) Herbicidal Effect Test by Soil Treatment
(§3) Sterilized diluvial soil was placed in a plastic box having a length of 21 cm, a width of 13 cm, and a depth of 7 cm. Each of the seeds of Digitaria ciliaris, Setaria viridis, Echinochloa crus-galli var. crus-galli, Avena fatua, Alopecurus myosuroides, Lolium multiflorum Lam., Apera spica-venti, Abutilon theophrasti, Amaranthus retroflexus, Chenopodium album, Stellaria media, Galium spurium, Veronica persica, corn, soybean, rice, wheat, beet, and rapeseed was sowed in a spot-like manner and was covered with the soil of a thickness of about 1.5 cm. Subsequently, the emulsion agent of the compound present invention prepared in accordance with Formulation Example 2 was diluted with water so as to be a predetermined herbicide amount and the diluted emulsion agent was uniformly applied to the surface of the soil with a small-size spray. The plastic box was placed in a greenhouse of 25° C. to 30° C. to grow plant. 3 weeks later from the herbicide application, the effect to each plant was investigated in accordance with the criteria of Test Example 1.

Setaria viridis [4] = assay: Test Example 4: herbicidal effect by soil treatment (symbol G); conditions: application herbicide amount 320 g/ha
Text: as §2, §3

[5] = tested on: Echinochloa crus-galli var. crus-galli; assay: Test Example 4: herbicidal effect by soil treatment (symbol H); conditions: application herbicide amount 320 g/ha
Text: as §2, §3

Avena fatua [6] = assay: Test Example 4: herbicidal effect by soil treatment (symbol I); conditions: application herbicide amount 320 g/ha
Text: as §2, §3

Alopecurus myosuroides [7] = assay: Test Example 4: herbicidal effect by soil treatment (symbol J); conditions: application herbicide amount 320 g/ha
Text: as §2, §3

Lolium multiflorum Lam. [8] = assay: Test Example 4: herbicidal effect by soil treatment (symbol K); conditions: application herbicide amount 320 g/ha
Text: as §2, §3

Apera spica-venti [9] = assay: Test Example 4: herbicidal effect by soil treatment (symbol L); conditions: application herbicide amount 320 g/ha
Text: as §2, §3

Abutilon theophrasti [10] = assay: Test Example 4: herbicidal effect by soil treatment (symbol M); conditions: application herbicide amount 320 g/ha
Text: as §2, §3

Amaranthus retroflexus [11] = assay: Test Example 4: herbicidal effect by soil treatment (symbol N); conditions: application herbicide amount 320 g/ha
Text: as §2, §3

Stellaria media [12] = assay: Test Example 4: herbicidal effect by soil treatment (symbol P); conditions: application herbicide amount 320 g/ha
Text: as §2, §3

Veronica persica [13] = assay: Test Example 4: herbicidal effect by soil treatment (symbol R); conditions: application herbicide amount 320 g/ha
Text: as §2, §3

corn [14] = assay: Test Example 4: effect on crop by soil treatment (symbol c); conditions: application herbicide amount 320 g/ha
Text: as §2
(§4) Sterilized diluvial soil was placed in a plastic box having a length of 21 cm, a width of 13 cm, and a depth of 7 cm. Each of the seeds of Digitaria ciliaris, Setaria viridis, Echinochloa crus-galli var. crus-galli, Avena fatua, Alopecurus myosuroides, Lolium multiflorum Lam., Apera spica-venti, Abutilon theophrasti, Amaranthus retroflexus, Chenopodium album, Stellaria media, Galium spurium, Veronica persica, corn, soybean, rice, wheat, beet, and rapeseed was sowed in a spot-like manner and was covered with the soil of a thickness of about 1.5 cm. […] The plastic box was placed in a greenhouse of 25° C. to 30° C. to grow plant.

soybean [15] = assay: Test Example 4: effect on crop by soil treatment (symbol d); conditions: application herbicide amount 320 g/ha
Text: as §2, §4

rice = assay: Test Example 4: effect on crop by soil treatment (symbol b); conditions: application herbicide amount 320 g/ha
Text: as §2, §4

wheat [16] = assay: Test Example 4: effect on crop by soil treatment (symbol e); conditions: application herbicide amount 320 g/ha
Text: as §2, §4

beet [17] = assay: Test Example 4: effect on crop by soil treatment (symbol f); conditions: application herbicide amount 320 g/ha
Text: as §2, §4

rapeseed [18] = assay: Test Example 4: effect on crop by soil treatment (symbol g); conditions: application herbicide amount 320 g/ha
Text: as §2, §4

Digitaria ciliaris [19] = assay: Test Example 5: herbicidal effect by foliage application, plastic box (symbol F); conditions: 320 g/ha, 3 weeks after application
In short: (§5)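 After sowing into sterilized diluvial soil and growing two weeks under glass at 25° C. to 30° C., seedlings receive a uniform foliar spray of diluted emulsion. Damage is judged visually three weeks on.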

Setaria viridis [20] = assay: Test Example 5: herbicidal effect by foliage application, plastic box (symbol G); conditions: 320 g/ha, 3 weeks after application
In short: as §5

[21] = tested on: Echinochloa crus-galli var. crus-galli; assay: Test Example 5: herbicidal effect by foliage application, plastic box (symbol H); conditions: 320 g/ha, 3 weeks after application
In short: as §5

Avena fatua [22] = assay: Test Example 5: herbicidal effect by foliage application, plastic box (symbol I); conditions: 320 g/ha, 3 weeks after application
In short: as §5

Alopecurus myosuroides [23] = assay: Test Example 5: herbicidal effect by foliage application, plastic box (symbol J); conditions: 320 g/ha, 3 weeks after application
In short: as §5

Lolium multiflorum Lam. [24] = assay: Test Example 5: herbicidal effect by foliage application, plastic box (symbol K); conditions: 320 g/ha, 3 weeks after application
In short: as §5

Apera spica-venti [25] = assay: Test Example 5: herbicidal effect by foliage application, plastic box (symbol L); conditions: 320 g/ha, 3 weeks after application
In short: as §5

Abutilon theophrasti [26] = assay: Test Example 5: herbicidal effect by foliage application, plastic box (symbol M); conditions: 320 g/ha, 3 weeks after application
In short: as §5

Amaranthus retroflexus [27] = assay: Test Example 5: herbicidal effect by foliage application, plastic box (symbol N); conditions: 320 g/ha, 3 weeks after application
In short: as §5

Stellaria media [28] = assay: Test Example 5: herbicidal effect by foliage application, plastic box (symbol P); conditions: 320 g/ha, 3 weeks after application
In short: as §5

Galium spurium = assay: Test Example 5: herbicidal effect by foliage application, plastic box (symbol Q); conditions: 320 g/ha, 3 weeks after application
In short: as §5

Veronica persica [29] = assay: Test Example 5: herbicidal effect by foliage application, plastic box (symbol R); conditions: 320 g/ha, 3 weeks after application
In short: as §5

corn [30] = assay: Test Example 5: effect on crop by foliage application, plastic box (symbol c); conditions: 320 g/ha, 3 weeks after application
In short: (§6)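 Seeds were sown in spots in sterilized diluvial soil held in a plastic box 21 cm × 13 cm × 7 cm deep, covered with about 1.5 cm of soil, and grown in a greenhouse at 25° C. to 30° C.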

soybean [31] = assay: Test Example 5: effect on crop by foliage application, plastic box (symbol d); conditions: 320 g/ha, 3 weeks after application
In short: as §6

rice plant = assay: Test Example 5: effect on crop by foliage application, plastic box (symbol b); conditions: 320 g/ha, 3 weeks after application
In short: as §6

wheat [32] = assay: Test Example 5: effect on crop by foliage application, plastic box (symbol e); conditions: 320 g/ha, 3 weeks after application
In short: as §6

beet [33] = assay: Test Example 5: effect on crop by foliage application, plastic box (symbol f); conditions: 320 g/ha, 3 weeks after application
In short: as §6

rapeseed [34] = assay: Test Example 5: effect on crop by foliage application, plastic box (symbol g); conditions: 320 g/ha, 3 weeks after application
In short: as §6

CCOC(=O)C(C(=O)C1CCCC1)C1CC(O)=C(c2c(C)cc(C)cc2C)C1=O (stereo not drawn) [2-027]
herbicidal effect on H (Echinochloa crus-galli var. crus-galli), grade 0-5 [1]: 3 (Herbicidal ratio of 40% or higher and lower than 70%)
herbicidal effect on D (Leptochloa chinensis), grade 0-5 (Leptochloa chinensis): 0 (Herbicidal ratio of 5% or lower (almost no effect))
herbicidal effect on E, grade 0-5 (Cyperus difformis): 0 (Herbicidal ratio of 5% or lower (almost no effect))
effect on crop b (directly sowed rice plant), grade 0-5 [2]: 5 (Herbicidal ratio of 90% or more (almost completely withered))
F: Digitaria ciliaris, herbicidal effect grade (Digitaria ciliaris [3]): 3 (Herbicidal ratio of 40% or higher and lower than 70%)
G: Setaria viridis, herbicidal effect grade (Setaria viridis [4]): 5 (Herbicidal ratio of 90% or more (almost completely withered))
H: Echinochloa crus-galli var. crus-galli, herbicidal effect grade [5]: 3 (Herbicidal ratio of 40% or higher and lower than 70%)
I: Avena fatua, herbicidal effect grade (Avena fatua [6]): 0 (Herbicidal ratio of 5% or lower (almost no effect))
J: Alopecurus myosuroides, herbicidal effect grade (Alopecurus myosuroides [7]): 1 (Herbicidal ratio of 5% or higher and lower than 20%)
K: Lolium multiflorum Lam., herbicidal effect grade (Lolium multiflorum Lam. [8]): 2 (Herbicidal ratio of 20% or higher and lower than 40%)
L: Apera spica-venti, herbicidal effect grade (Apera spica-venti [9]): 0 (Herbicidal ratio of 5% or lower (almost no effect))
M: Abutilon theophrasti, herbicidal effect grade (Abutilon theophrasti [10]): 0 (Herbicidal ratio of 5% or lower (almost no effect))
N: Amaranthus retroflexus, herbicidal effect grade (Amaranthus retroflexus [11]): 0 (Herbicidal ratio of 5% or lower (almost no effect))
P: Stellaria media, herbicidal effect grade (Stellaria media [12]): 0 (Herbicidal ratio of 5% or lower (almost no effect))
R: Veronica persica, herbicidal effect grade (Veronica persica [13]): 0 (Herbicidal ratio of 5% or lower (almost no effect))
c: corn, effect on crop grade (corn [14]): 1 (Herbicidal ratio of 5% or higher and lower than 20%)
d: soybean, effect on crop grade (soybean [15]): 0 (Herbicidal ratio of 5% or lower (almost no effect))
b: directly sowed rice plant, effect on crop grade (rice): 4 (Herbicidal ratio of 70% or higher and lower than 90%)
e: wheat, effect on crop grade (wheat [16]): 0 (Herbicidal ratio of 5% or lower (almost no effect))
f: beet, effect on crop grade (beet [17]): 0 (Herbicidal ratio of 5% or lower (almost no effect))
g: rapeseed, effect on crop grade (rapeseed [18]): 0 (Herbicidal ratio of 5% or lower (almost no effect))
F: Digitaria ciliaris, herbicidal effect grade (Digitaria ciliaris [19]): 0 (Herbicidal ratio of 5% or lower (almost no effect))
G: Setaria viridis, herbicidal effect grade (Setaria viridis [20]): 5 (Herbicidal ratio of 90% or more (almost completely withered))
H: Echinochloa crus-galli var. crus-galli, herbicidal effect grade [21]: 3 (Herbicidal ratio of 40% or higher and lower than 70%)
I: Avena fatua, herbicidal effect grade (Avena fatua [22]): 1 (Herbicidal ratio of 5% or higher and lower than 20%)
J: Alopecurus myosuroides, herbicidal effect grade (Alopecurus myosuroides [23]): 2 (Herbicidal ratio of 20% or higher and lower than 40%)
K: Lolium multiflorum Lam., herbicidal effect grade (Lolium multiflorum Lam. [24]): 4 (Herbicidal ratio of 70% or higher and lower than 90%)
L: Apera spica-venti, herbicidal effect grade (Apera spica-venti [25]): 0 (Herbicidal ratio of 5% or lower (almost no effect))
M: Abutilon theophrasti, herbicidal effect grade (Abutilon theophrasti [26]): 0 (Herbicidal ratio of 5% or lower (almost no effect))
N: Amaranthus retroflexus, herbicidal effect grade (Amaranthus retroflexus [27]): 0 (Herbicidal ratio of 5% or lower (almost no effect))
P: Stellaria media, herbicidal effect grade (Stellaria media [28]): 0 (Herbicidal ratio of 5% or lower (almost no effect))
Q: Galium spurium, herbicidal effect grade (Galium spurium): 0 (Herbicidal ratio of 5% or lower (almost no effect))
R: Veronica persica, herbicidal effect grade (Veronica persica [29]): 0 (Herbicidal ratio of 5% or lower (almost no effect))
c: corn, effect on crop grade (corn [30]): 1 (Herbicidal ratio of 5% or higher and lower than 20%)
d: soybean, effect on crop grade (soybean [31]): 0 (Herbicidal ratio of 5% or lower (almost no effect))
b: directly sowed rice plant, effect on crop grade (rice plant): 4 (Herbicidal ratio of 70% or higher and lower than 90%)
e: wheat, effect on crop grade (wheat [32]): 0 (Herbicidal ratio of 5% or lower (almost no effect))
f: beet, effect on crop grade (beet [33]): 0 (Herbicidal ratio of 5% or lower (almost no effect))
g: rapeseed, effect on crop grade (rapeseed [34]): 1 (Herbicidal ratio of 5% or higher and lower than 20%)
